Patent US12692249B2, “WDR5 inhibitors and modulators” (Vanderbilt University, priority 2019, dated 2026)
pKi: −log10 of the molar value.

How the values were obtained:
[1] = test system: MV4:11 human cancer cell lines; assay: Cellular viability / anti-proliferative assay, CellTiter-Glo, 5 day protocol; type: cell-based; details: Homo sapiens, MV4-11, 120 h, MV4:11 cells; 5 day incubation; CellTiter-Glo; mean of at least two replicates; read-out: GI50 on cellular proliferation of MV4:11 human cancer cell lines
Summary of the method: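 Luminescent ATP-based viability (CellTiter-Glo) after a 5-day exposure gave GI50 via sigmoidal fitting, averaged over two or more replicates. Compounds spanned 22 two-fold steps down from 30 μM at 0.3% DMSO, on 200 MV-4-11 cells per well grown in IMDM plus 10% FBS.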

[2] = target: WDR5 (Homo sapiens, UniProt P61964); assay: TR-FRET competition binding assay, displacement of 10mer-Thr-FAM MLL peptide probe from His-tagged WDR5; details: WDR5-His tag (residues 24-334) 2 nM; 10mer-Thr-FAM 150 nM; 60 min, room temperature; read-out: Ki for Inhibition of WDR5 by TR-FRET assay
Method: Time Resolved-Fluorescence Energy Transfer Competition Assay […] Excess 10mer-Thr-FAM probe was utilized with His-tagged WDR5 in conjunction with a commercial anti-His antibody containing a Terbium label. The LanthaScreenTM Elite Tb-anti-HIS Antibody from ThermoFisher Scientific was used for this purpose. […] The 10mer-Thr-FAM probe when bound to WDR5 will undergo a FRET interaction with the Tb-anti-HIS and emit at 520 nm. […] WDR[…] 10[…] used at 150 nM. […] A source plate is prepared using an Echo Liquid Handler, which distributes the compounds to the assay plate (white, flat-bottom; OptiPlate) in a 10-point, 5-fold dilution schemes with a top concentration of 5 μM, in a final volume of 20 μL. […] The final DMSO concentration in each well of the assay plate is 1% or lower. The plate is covered, shielded from light, and incubated for 60 minutes at room temperature with rocking. 10mer-Thr-FAM and Anti-His terbium antibody fluorescence is then measured on a Biotek Cytation 3 at excitation wavelength of 340 nm, and emission wavelengths of 495 nm and 520 nm. […] TR-FRET signal is plotted and IC50 and Ki values are calculated according to the formula of Wang Z. FEBS Lett (1996) 3, 245. Ki=[I]50/([L]50/Kd+[P]0/Kd+1) where [I]50 is the concentration of the free inhibitor at 50% inhibition, [L]50 is the concentration of the free labeled ligand at 50% inhibition, [P]0 is the concentration of the free protein at 0% inhibition, Kd represents the dissociation constant of the FITC-MLL or 10mer-Thr-FAM probe for WDR5. Total fluorescence is also measured, to rule out compounds that are inherently fluorescent or able to act as quenchers in the assay. TR-FRET Binding Assay

Row | Compound | GI50 [1] [nM] | pKi [2]
1 | COc1ccc2c(OC)ncc(N3CCc4c(cc(Cn5ccnc5)cc4-c4cn(C)nc4C(F)(F)F)C3=O)c2c1 [Example 22, 7-((1H-imidazol-1-yl)methyl)-1′,6′-dimethoxy-5-(1-methyl-3-(trifluoromethyl)-1H-pyrazol-4-yl)-3,4-dihydro-1H-[2,4′-biisoquinolin]-one] | 111 | 10.54
2 | COc1ccc(N2CCc3c(cc(Cn4ccnc4)cc3-c3cn(C)nc3C(F)(F)F)C2=O)c2cc(C)cnc12 [Example 23, 7-((1H-Imidazol-1-yl)methyl)-2-(8-methoxy-3-methylquinolin-5-yl)-5-(1-methyl-3-(trifluoromethyl)-1H-pyrazol-4-yl)-3,4-dihydroisoquinolin-1(2H)-one] | 210 | > 10.70
3 | Cc1cc(Cl)c2cncc(N3CCc4c(cc(Cn5ccnc5)cc4-c4cn(C)nc4C(F)(F)F)C3=O)c2c1 [Example 24, 7-((1H-Imidazol-1-yl)methyl)-8′-chloro-6′-methyl-5-(1-methyl-3-(trifluoromethyl)-1H-pyrazol-4-yl)-3,4-dihydro-1H-[2,4′-biisoquinolin]-1-one] | 92 | 10.59
4 | COc1ccc2ncnc(N3CCc4c(cc(Cn5ccnc5)cc4-c4cn(C)nc4C(F)(F)F)C3=O)c2c1 [Example 25, 7-((1H-Imidazol-1-yl)methyl)-2-(6-methoxyquinazolin-4-yl)-5-(1-methyl-3-(trifluoromethyl)-1H-pyrazol-4-yl)-3,4-dihydroisoquinolin-1(2)-one] | 70 | 10.21
5 | Cc1cc2c(N3CCc4c(cc(Cn5ccnc5)cc4-c4cn(C)nc4C(F)(F)F)C3=O)cccc2n1C [Example 26, 7-((1H-Imidazol-1-yl)methyl)-2-(1,2-dimethyl-1H-indol-4-yl)-5-(1-methyl-3-(trifluoromethyl)-1H-pyrazol-4-yl)-3,4-dihydroisoquinolin-1(2H)-one] | 369 | 10.06
6 | Cc1nc2cccc(N3CCc4c(cc(Cn5ccnc5)cc4-c4cn(C)nc4C(F)(F)F)C3=O)c2o1 [Example 27, 7-((1H-Imidazol-1-yl)methyl)-5-(1-methyl-3-(trifluoromethyl)-1H-pyrazol-4-yl)-2-(2-methylbenzo[d]oxazol-7-yl)-3,4-dihydroisoquinolin-1(2H)-one] | > 30000 | 8.34
7 | Cc1cc2c(N3CCc4c(cc(Cn5ccnc5)cc4-c4cn(C)nc4C(F)(F)F)C3=O)ccnc2n1C [Example 28, 7-((1H-Imidazol-1-yl)methyl)-2-(1,2-dimethyl-1H-pyrrolo[2,3-b]pyridin-4-yl)-5-(1-methyl-3-(trifluoromethyl)-1H-pyrazol-4-yl)-3,4-dihydroisoquinolin-1(2H)-one] | 281 | 10.49
8 | CCc1cc(N(C)C)c2nccc(N3CCc4c(cc(Cn5ccnc5)cc4-c4cn(C)nc4C(F)(F)F)C3=O)c2c1 [Example 35, 7-((1H-Imidazol-1-yl)methyl)-2-(8-(dimethylamino)-6-ethylquinolin-4-yl)-5-(1-methyl-3-(trifluoromethyl)-1H-pyrazol-4-yl)-3,4-dihydroisoquinolin-1(2H)-one] | 76 | > 10.70
9 | COc1cc(C(=O)N2CCCC2)c2nccc(N3CCc4c(cc(Cn5ccnc5)cc4-c4cn(C)nc4C(F)(F)F)C3=O)c2c1 [Example 44, 7-((1H-Imidazol-1-yl)methyl)-2-(6-methoxy-8-(pyrrolidine-1-carbonyl)quinolin-4-yl)-5-(1-methyl-3-(trifluoromethyl)-1H-pyrazol-4-yl)-3,4-dihydroisoquinolin-1(2H)-one] | 353 | > 10.70

Now those with a lower GI50 [1], led by results:

Row | GI50 [1] [nM] | pKi [2] | Compound
10 | 23 | > 10.70 | COc1ccc2c(Cl)ncc(N3CCc4c(cc(Cn5ccnc5)cc4-c4cn(C)nc4C(F)(F)F)C3=O)c2c1 [Example 21, 7-((1H-Imidazol-1-yl)methyl)-1′-chloro-6′-methoxy-5-(1-methyl-3-(trifluoromethyl)-1H-pyrazol-4-yl)-3,4-dihydro-1H-[2,4′-biisoquinolin]-1-one]
11 | 65 | > 10.70 | COc1cc(Br)c2nccc(N3CCc4c(cc(Cn5ccnc5)cc4-c4cn(C)nc4C(F)(F)F)C3=O)c2c1 [Example 29, 7-((1H-Imidazol-1-yl)methyl)-2-(8-bromo-6-methoxyquinolin-4-yl)-5-(1-methyl-3-(trifluoromethyl)-1H-pyrazol-4-yl)-3,4-dihydroisoquinolin-1(2H)-one]
12 | < 20 | > 10.70 | COc1cc(N2CCOCC2)c2nccc(N3CCc4c(cc(Cn5ccnc5)cc4-c4cn(C)nc4C(F)(F)F)C3=O)c2c1 [Example 30, 7-((1H-Imidazol-1-yl)methyl)-2-(6-methoxy-8-morpholinoquinolin-4-yl)-5-(1-methyl-3-(trifluoromethyl)-1H-pyrazol-4-yl)-3,4-dihydroisoquinolin-1(2H)-one]
13 | < 20 | > 10.70 | COc1cc(N2CCN(C)CC2)c2nccc(N3CCc4c(cc(Cn5ccnc5)cc4-c4cn(C)nc4C(F)(F)F)C3=O)c2c1 [Example 31, 7-((1H-Imidazol-1-yl)methyl)-2-(6-methoxy-8-(4-methylpiperazin-1-yl)quinolin-4-yl)-5-(1-methyl-3-(trifluoromethyl)-1H-pyrazol-4-yl)-3,4-dihydroisoquinolin-1(2H)-one]
14 | 23 | > 10.70 | CCc1cc(N2CCOCC2)c2nccc(N3CCc4c(cc(Cn5ccnc5)cc4-c4cn(C)nc4C(F)(F)F)C3=O)c2c1 [Example 36, 7-((1H-Imidazol-1-yl)methyl)-2-(6-ethyl-8-morpholinoquinolin-4-yl)-5-(1-methyl-3-(trifluoromethyl)-1H-pyrazol-4-yl)-3,4-dihydroisoquinolin-1(2H)-one]
15 | < 20 | > 10.70 | CCc1cc(N2CCN(C)CC2)c2nccc(N3CCc4c(cc(Cn5ccnc5)cc4-c4cn(C)nc4C(F)(F)F)C3=O)c2c1 [Example 37, 7-((1H-Imidazol-1-yl)methyl)-2-(6-ethyl-8-(4-methylpiperazin-1-yl)quinolin-4-yl)-5-(1-methyl-3-(trifluoromethyl)-1H-pyrazol-4-yl)-3,4-dihydroisoquinolin-1(2H)-one]
16 | 31 | > 10.70 | CCc1cc(N(C)CCN(C)C)c2nccc(N3CCc4c(cc(Cn5ccnc5)cc4-c4cn(C)nc4C(F)(F)F)C3=O)c2c1 [Example 38, 7-((1H-Imidazol-1-yl)methyl)-2-(8-((2-(dimethylamino)ethyl)(methyl)amino)-6-ethylquinolin-4-yl)-5-(1-methyl-3-(trifluoromethyl)-1H-pyrazol-4-yl)-3,4-dihydroisoquinolin-1(2H)-one]
17 | 20 | > 10.70 | CNC(=O)c1cc(OC)cc2c(N3CCc4c(cc(Cn5ccnc5)cc4-c4cn(C)nc4C(F)(F)F)C3=O)ccnc12 [Example 42, 4-(7-((1H-Imidazol-1-yl)methyl)-5-(1-methyl-3-(trifluoromethyl)-1H-pyrazol-4-yl)-1-oxo-3,4-dihydroisoquinolin-2(1H)-yl)-6-methoxy-N-methylquinoline-8-carboxamide]
18 | 34 | > 10.70 | COCCNC(=O)c1cc(OC)cc2c(N3CCc4c(cc(Cn5ccnc5)cc4-c4cn(C)nc4C(F)(F)F)C3=O)ccnc12 [Example 49, 4-(7-((1H-Imidazol-1-yl)methyl)-5-(1-methyl-3-(trifluoromethyl)-1H-pyrazol-4-yl)-1-oxo-3,4-dihydroisoquinolin-2(1H)-yl)-6-methoxy-N-(2-methoxyethyl)quinoline-8-carboxamide]
19 | 22 | > 10.70 | CCn1cc(-c2cc(Cn3ccnc3C)cc3c2CCN(c2cccc4ncc(OC)cc24)C3=O)c(C(F)(F)F)n1 [Example 50, 5-(1-Ethyl-3-(trifluoromethyl)-1H-pyrazol-4-yl)-2-(3-methoxyquinolin-5-yl)-7-((2-methyl-1H-imidazol-1-yl)methyl)-3,4-dihydroisoquinolin-1(2H)-one]
20 | < 20 | > 10.70 | CCn1cc(-c2cc(Cn3ccnc3C)cc3c2CCN(c2cc(C)nc4ccc(OC)cc24)C3=O)c(C(F)(F)F)n1 [Example 51, 5-(1-Ethyl-3-(trifluoromethyl)-1H-pyrazol-4-yl)-2-(6-methoxy-2-methylquinolin-4-yl)-7-((2-methyl-1H-imidazol-1-yl)methyl)-3,4-dihydroisoquinolin-1(2H)-one]
21 | 62 | 10.55 | CCn1cc(-c2cc(Cn3ccnc3)cc3c2CCN(c2cccc4ncc(OC)cc24)C3=O)c(C(F)(F)F)n1 [Example 52, 7-((1H-Imidazol-1-yl)methyl)-5-(1-ethyl-3-(trifluoromethyl)-1H-pyrazol-4-yl)-2-(3-methoxyquinolin-5-yl)-3,4-dihydroisoquinolin-1(2H)-one]
